Measured values as given in article PMC10046377, “Inhibitors of the Oncogenic PA2G4-MYCN Protein-Protein Interface” (Cancers, 2023).
pIC50: −log10 of the molar value.

Test system: WI-38 cells
Experiment: Alamar Blue cell viability assay, WI-38 non-malignant myofibroblasts
Format: cell-based
Conditions: Homo sapiens, read-out: IC50 WI-36
Text: The MYCN amplified neuroblastoma cell line SK-N-BE(2)-C was kindly provided by Professor June Biedler (Memorial Sloan Kettering Cancer Centre, New York, NY, USA), and Kelly was obtained from European Collection of Cell Cultures. The two normal lung fibroblast cell lines (MRC-5 and WI-38) were purchased from ATCC. SK-N-BE(2)-C shMYCN#2 doxycycline-inducible cell and Kelly shMYCN#2 doxycycline-inducible cell were custom-made by GenScript (Piscataway, NJ, USA). SK-N-BE(2)-C, SK-N-BE(2)-C shMYCN#2, and SHEP MYCN3 doxycycline-inducible cells were maintained in Dulbecco’s modified Eagle’s medium (DMEM) (Invitrogen, Life Technologies, Waltham, MA, USA) with 10% foetal calf serum (FCS). Kelly and Kelly shMYCN#2 doxycycline-inducible cell were cultured in Roswell Park Memorial Institute (RPMI) 1640 (Invitrogen, Life Technologies) with 10% FCS. MRC-5 and WI-38 were cultured in Alpha-MEM media (Invitrogen, Life Technologies) with 10% FCS. All cells were not cultured for more than 2 months. All used cell lines were authenticated by Cell Bank Australia (Westmead, NSW, Australia) as being free from mycoplasma, and cultured at 37 °C and 5% CO2 in a humidifier incubator.
Cell viability was determined by the Alamar Blue assay (75 mg resazurin, 12.5 mg methylene blue, 164.5 mg potassium hexacyanoferrate (III), 211 mg potassium hexacyanoferrate (II) trihydrate in 500 mL of phosphate buffered saline). After 6 h incubation with Alamar Blue, the change of fluorescence was measured by Victor 3 multilabel Plate Reader (Perkin Elmer Australia, Melburne, Australia) at an excitation wavelength of 560 nm and an emission wavelength of 590 nm.
We have shown that the PA2G4 protein increased the half-life of the oncoprotein MYCN through direct binding, and competitive chemical inhibition of this bond by WS6 reduced tumorigenicity both in vitro and in vivo [11]. […] Here, we explored the structure–activity relationship (SAR) of WS6 analogue compounds with the aim to increase efficacy and reduce toxicity. […] The in vitro cytotoxicity of these 14 compounds were measured by cell viability assays using Alamar Blue in MYCN amplified human neuroblastoma (SK-N-BE(2)-C and Kelly) cell lines compared to non-malignant (WI-38, MRC-5) myofibroblast cell lines (Figure 1B,C and Supplementary Figure S1A).

Q: With `Cc1cccc(Oc2cc(N3CCC(C(=O)NCc4cccc(C(F)(F)F)c4)CC3)ncn2)c1C` [#3567] as the compound, how does the pIC50 read?
A: Its pIC50 is 4.10.

Q: With `Cc1cccc(Oc2cc(N3CCC(C(=O)NCc4cccc(Br)c4)CC3)ncn2)c1C` [#5333] as the compound, how does the pIC50 read?
A: Its pIC50 is 4.00.

Q: How did the pIC50 turn out when `Cc1cccc(Oc2cc(N3CCC(C(=O)N[C@@H](C)CCc4ccccc4)CC3)ncn2)c1C` [#5338] was run?
A: Its pIC50 is 4.00.
